Results reported in patent US20040242870A1, “Antiviral methods and compounds” (priority 2000, published 2004).
Read-outs that look alike come from different tables or passages of the source.

Experiments:
HIV-1 = assay: HeLa CD4 LTR β-gal/HL2/3 HIV-1 fusion assay; type: cell-based; conditions: fusion assay
Excerpt: This assay uses the HeLa CD4 LTR β-gal and HL2-3 cells available from the AIDS Research and Reference Reagent Repository. The HL2/3 are derived from HeLa cells and engineered to express HIV gp120 on their cell surface and Tat protein in their cytoplasma. Thus following gp 120/CD4/coreceptor-mediated fusion; cytoplasmic mixing results in the HL2/3 cell-derived Tat trans-activation of the β-galactosidase reporter. […] Twenty-four h prior to initiation of the assay cells were trypsinized, counted and 5×10^3 cells placed in a 0.2 cm well in media without selection antibiotics. To initiate the fusion assay HeLa CD4 LTR β-gal (5×10^3 cells per 0.2 cm well) were incubated with compound for 1 h at 37° C. HL2/3 cells (5×10^3) were added to the 0.2 cm well and the incubation continued for 48 h. At 48 h the wells were washed 1 time with PBS and β-galactosidase enzyme expression determined by chemiluminescence per manufacturers instructions (Tropix Gal-screen™, Tropix, Bedford, Mass.). Compound toxicity was monitored on sister plates using MTS dye reduction.

HeLa CD4 LTR β-gal cells = assay: Compound toxicity in attachment assay (MTS dye reduction, sister plates); type: cell-based; conditions: read-out: TC50 (the source's name)
Description: At assay termination the assay plates were stained with the soluble tetrazolium-based dye MTS (CellTiter96® Reagent Promega) to determine cell viability and quantify compound toxicity. MTS is metabolized by the mitochondria enzymes of metabolically active cells to a soluble formazan product, allowing the rapid quantitative analysis cell viability and compound cytotoxicity. […] At termination of the assay 20 μL of MTS reagent was added per well and incubated for 4 h at 37° C. Adhesive plate sealers were used in place of the lids, the sealed plate was inverted several times to mix the soluble formazan product and the plate was read spectrophotometrically at 490 nm with a Molecular Devices Vmax plate reader.
The attachment assay was performed with the HeLa CD4 LTR , β-gal cells available from the AIDS Research and Reference Reagent Repository. […] HeLa CD4 LTR β-gal cells express cell surface CD4 and contain an LTR β-galactosidase reporter construct. Upon infection either the Tat protein incorporated into the virion or new Tat produced following virus integration and transcription trans-activates the LTR β-gal reporter, leading to expression of the β-galactosidase enzyme. HeLa CD4 LTR β-gal cells are routinely cultured with the required selection antibiotics and screened for mycoplasma contamination. Twenty-four h prior to initiation of the assay cells were trypsinized, counted and 1×10^4 cells placed in a 0.2 cm well in media without selection antibiotics. Media was removed at 24 h and compound in media placed on the cells and incubated for 15 to 30 min at 37° C. A known titer of virus was then added to the wells and the incubation continued for 1 h. At the end of the incubation the wells were washed 6 times with media and the culture continued for 48 h. At 48 h the wells were washed one time with PBS and β-galactosidase enzyme expression determined by chemiluminescence per manufacturers instructions (Tropix Gal-screen™, Tropix, Bedford, Mass.). Compound toxicity was monitored on sister plates using MTS dye reduction.

| SMILES | Comments: suppression of β-galactosidase activity (HIV-1) | CC50 (HeLa CD4 LTR β-gal cells; Experiment 1, pretreat 0 h) [µM] | CC50 (HeLa CD4 LTR β-gal cells; Experiment 1, pretreat 4 h) [µM] | CC50 (HeLa CD4 LTR β-gal cells; Experiment 1, pretreat 24 h) [µM] | CC50 (HeLa CD4 LTR β-gal cells; Experiment 2, pretreat 0 h) [µM] | CC50 (HeLa CD4 LTR β-gal cells; Experiment 2, pretreat 4 h) [µM] | CC50 (HeLa CD4 LTR β-gal cells; Experiment 2, pretreat 24 h) [µM] |
| --- | --- | --- | --- | --- | --- | --- | --- |
| C=C(C)[C@@H]1CCC(C)=C[C@H]1c1c(O)cc(CCCCC)cc1O [Cannabidiol, reference compound] | Suppression of β-galactosidase |  |  |  |  |  |  |
| CC(C)=CCCC1(C)CCc2c(O)cc(C(C)(C)CCCC(C)C)cc2O1 (stereo not shown) [IG-08, 3,4-Dihydro-2-methyl-2-(4-methyl-3-pentenyl)-7-(1,1,5-trimethylhexyl)-2H-1-benzopyran-5-ol] |  | > 50 | > 50 | > 50 | > 50 | 29 | 12.2 |
